Measurements as given in patent US8871783B2, “Substituted 2-aza-bicyclo[2.2.1]heptane-3-carboxylic acid (cyano-methyl)-amides inhibitors of cathepsin C” (Boehringer Ingelheim International GmBh, priority 2013, dated 2014).

Target: recombinant human DPPI (Homo sapiens (Human), UniProt P53634)
Experiment: Inhibition of Human DPPI (Cathepsin C)
Format: biochemical
Conditions: substrate Gly-Arg-AMC 50 μM, MES buffer pH 6.0, fluorescence
Text: Inhibition of Human DPPI (Cathepsin C)
Materials: Microtiterplates (Optiplate-384 F) were purchased from PerkinElmer (Prod. No. 6007270). The substrate Gly-Arg-AMC was from Biotrend (Prod.-No. 808756 Custom peptide). Bovine serum albumin (BSA; Prod. No. A3059) and Dithiothreitol (DTT; Prod. No D0632) were from Sigma. TagZyme buffer was from Riedel-de-Haen (Prod.-No. 04269), NaCl was from Merck (Prod.-No. 1.06404.1000) and morpholinoethane sulfonic acid (MES), was from Serva (Prod.-No. 29834). The DPP1 inhibitor Gly-Phe-DMK was purchased from MP Biomedicals (Prod.-No. 03DK00625). The recombinant human DPPI was purchased from Prozymex. All other materials were of highest grade commercially available.
The following buffers were used: MES buffer: 25 mM MES, 50 mM NaCl, 5 mM DTT, adjusted to pH 6.0, containing 0.1% BSA; TAGZyme Buffer: 20 mM NaH2PO4, 150 mM NaCl adjusted to pH 6.0 with HCl
Assay conditions: The recombinant human DPPI was diluted in TAGZyme buffer to 1 U/ml (38.1 μg/ml, respectively), and then activated by mixing in a 1:2 ratio with a Cysteamine aqueous solution (2 mM) and incubating for 5 min at room temperature.
Five uL test compound (final concentration 0.1 nM to 100 μM) in aqua bidest (containing 4% DMSO, final DMSO concentration 1%) were mixed with 10 μL of DPPI in MES buffer (final concentration 0.0125 ng/μL) and incubated for 10 min. Then, 5 μL of substrate in MES buffer (final concentration 50 μM) were added. The microtiter plates were then incubated at room temperature for 30 min. Then, the reaction was stopped by adding 10 μL of Gly-Phe-DMK in MES-buffer (final concentration 1 μM). The fluorescence in the wells was determined using a Molecular Devices SpectraMax M5 Fluorescence Reader (Ex 360 nm, Em 460 nm) or an Envision Fluorescence Reader (Ex 355 nm, Em 460 nm).
Each assay microtiter plate contained wells with vehicle controls (1% DMSO in bidest+0.075% BSA) as reference for non-inhibited enzyme activity (100% Ctl; high values) and wells with inhibitor (Gly-Phe-DMK, in bidest+1% DMSO+0.075% BSA, final concentration 1 μM) as controls for background fluorescence (0% Ctl; low values).
The analysis of the data was performed by calculating the percentage of fluorescence in the presence of test compound in comparison to the fluorescence of the vehicle control after subtracting the background fluorescence using the following formula: (RFU(sample)−RFU(background))*100/(RFU(control)−RFU(background)) […]

recombinant human DPPI, sequence (P53634 231-394): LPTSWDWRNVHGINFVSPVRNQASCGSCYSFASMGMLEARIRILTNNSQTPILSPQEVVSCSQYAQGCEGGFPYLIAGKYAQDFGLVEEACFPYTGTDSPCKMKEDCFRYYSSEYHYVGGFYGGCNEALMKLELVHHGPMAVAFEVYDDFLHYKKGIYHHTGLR
recombinant human DPPI, sequence (P53634 395-463): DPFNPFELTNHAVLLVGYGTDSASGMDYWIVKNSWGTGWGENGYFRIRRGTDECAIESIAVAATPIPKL
recombinant human DPPI, sequence (P53634 25-134): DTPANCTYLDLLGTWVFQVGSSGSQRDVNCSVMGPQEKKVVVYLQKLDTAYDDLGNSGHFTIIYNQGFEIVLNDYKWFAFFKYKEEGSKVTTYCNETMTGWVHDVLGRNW

Row | SMILES | Ki
1 | N#Cc1ccc(-c2ccc3oc(CC(C#N)NC(=O)[C@H]4N[C@@H]5CC[C@H]4C5)cc3c2)cc1F (stereo partly drawn) [Example 7] | 39.3 nM
2 | CN1C(=O)Cc2ccc(-c3ccc(C[C@@H](C#N)NC(=O)[C@H]4N[C@@H]5CC[C@H]4C5)o3)cc21 [Example 5] | 176 nM
3 | N#CC(Cc1cc2cc(-c3ccccc3)ccc2s1)NC(=O)[C@H]1N[C@@H]2CC[C@H]1C2 (stereo partly drawn) [Example 11] | 72.8 nM
4 | N#CC(Cc1cc2cc(Br)ccc2s1)NC(=O)[C@H]1N[C@@H]2CC[C@H]1C2 (stereo partly drawn) [Example 10] | 35.8 nM
5 | CN1C(=O)Cc2ccc(-c3ccc(C[C@@H](C#N)NC(=O)[C@H]4N[C@@H]5CC[C@H]4C5)s3)cc21 [Example 3] | 3.2 nM
6 | CN1C(=O)C(=O)c2ccc(-c3ccc(C[C@@H](C#N)NC(=O)[C@H]4N[C@@H]5CC[C@H]4C5)s3)cc21 [Example 4] | 2.1 nM
7 | N#CC(Cc1cc2cc(-c3ccccc3)ccc2o1)NC(=O)[C@H]1N[C@@H]2CC[C@H]1C2 (stereo partly drawn) [Example 9] | 62 nM
8 | N#Cc1ccc(-c2ccc(C[C@@H](C#N)NC(=O)[C@H]3N[C@@H]4CC[C@H]3C4)s2)cc1F [Example 1] | 13.7 nM
9 | CN1C(=O)Cc2ccc(-c3ccc4oc(CC(C#N)NC(=O)[C@H]5N[C@@H]6CC[C@H]5C6)cc4c3)cc21 (stereo partly drawn) [Example 8] | 104 nM
10 | CN1C(=O)Cc2ccc(-c3cnc(CC(C#N)NC(=O)[C@H]4N[C@@H]5CC[C@H]4C5)s3)cc21 (stereo partly drawn) [Example 12] | 14.9 nM
11 | CS(=O)(=O)c1ccc(-c2ccc(C[C@@H](C#N)NC(=O)[C@H]3N[C@@H]4CC[C@H]3C4)s2)cc1 [Example 2] | 17.3 nM
12 | N#CC(Cc1cc2cc(Br)ccc2o1)NC(=O)[C@H]1N[C@@H]2CC[C@H]1C2 (stereo partly drawn) [Example 6] | 64.1 nM
13 | CN1C(=O)Cc2ccc(-c3csc(CC(C#N)NC(=O)[C@H]4N[C@@H]5CC[C@H]4C5)c3F)cc21 (stereo partly drawn) [Example 13] | 61.7 nM
14 | CC(=O)c1ccc(-c2ccc(C[C@@H](C#N)NC(=O)[C@H]3N[C@@H]4CC[C@H]3C4)s2)s1 [Example 14] | 13.4 nM

The next lines start with the values.

Row | Ki | SMILES
15 | 4.2 nM | N#C[C@H](Cc1ccc(-c2ccc3c(c2)NC(=O)C3)s1)NC(=O)[C@H]1N[C@@H]2CC[C@H]1C2 [Example 17]
16 | 17.1 nM | CCn1cc(-c2ccc(C[C@@H](C#N)NC(=O)[C@H]3N[C@@H]4CC[C@H]3C4)s2)cn1 [Example 16]
17 | 27 nM | N#C[C@H](Cc1ccc(-c2cnn(CC3CCOCC3)c2)s1)NC(=O)[C@H]1N[C@@H]2CC[C@H]1C2 [Example 18]
18 | 4 nM | CC1(C)OC(=O)c2ccc(-c3ccc(C[C@@H](C#N)NC(=O)[C@H]4N[C@@H]5CC[C@H]4C5)s3)cc21 [Example 25]
19 | 21.9 nM | CC1(C)OC(=O)c2cc(-c3ccc(C[C@@H](C#N)NC(=O)[C@H]4N[C@@H]5CC[C@H]4C5)s3)ccc21 [Example 24]
20 | 2.2 nM | CN1C(=O)Cc2ccc(-c3cc(F)c(CC(C#N)NC(=O)[C@H]4N[C@@H]5CC[C@H]4C5)s3)cc21 (stereo partly drawn) [Example 22]
21 | 37.9 nM | CN1CCC(c2ccc(C[C@@H](C#N)NC(=O)[C@H]3N[C@@H]4CC[C@H]3C4)s2)CC1 [Example 20]
22 | 41.9 nM | CN1C(=O)Cc2ccc(-c3csc(CC(C#N)NC(=O)[C@H]4N[C@@H]5CC[C@H]4C5)c3)cc21 (stereo partly drawn) [Example 15]
23 | 16.7 nM | CS(=O)(=O)c1cccc(-c2ccc(C[C@@H](C#N)NC(=O)[C@H]3N[C@@H]4CC[C@H]3C4)s2)c1 [Example 26]
24 | 2.9 nM | CN1CCN(S(=O)(=O)c2ccc(-c3ccc(C[C@@H](C#N)NC(=O)[C@H]4N[C@@H]5CC[C@H]4C5)s3)cc2)CC1 [Example 23]
